This note sets out measurements from ChEMBL document CHEMBL5653619, “A potent, selective and cell-active allosteric inhibitor of protein arginine methyltransferase 3 (PRMT3)” (Angew Chem Int Ed Engl, 2015).

A short description of series [1]: Drug concentration in CD-1 mouse plasma at 30 mg/kg, ip measured at 6 hrs post injection. The format is ADME, organism-based.
Series [2] concerns HEK293. As to the kind of experiment: Cytotoxicity against HEK293 cells assessed as reduction in cell viability at 50 to 100 uM incubated for 72 hrs by alamar blue assay. The format is toxicity, cell-based. The conditions noted are these: human, hek293, 72 h, dose 50-100 µM. In general terms: Resazurin is reduced to fluorescent resorufin, in cell work by metabolically active cells.

The test system of series [3] is MDA-MB-231. The series can be described thus: Cytotoxicity against human MDA-MB-231 cells assessed as reduction in cell viability incubated for 24 hrs by alamar blue assay. The format is toxicity, cell-based. Particulars: mda-mb-231, 24 h.
The test system of series [4] is U2OS. As to the kind of experiment: Cytotoxicity against human U2OS cells assessed as reduction in cell viability at 50 to 100 uM incubated for 72 hrs by alamar blue assay. It counts as toxicity, cell-based. Particulars: dose 50-100 µM.
Series [5] deals with LNCaP. As to the kind of experiment: Cytotoxicity against human LNCaP cells assessed as reduction in cell viability incubated for 24 hrs by alamar blue assay. The format is toxicity, cell-based.
Series [6] deals with U2OS. The series can be described thus: Cytotoxicity against human U2OS cells assessed as reduction in cell viability incubated for 24 hrs by alamar blue assay. The format is toxicity, cell-based.
The nature of series [7]: Toxicity in CD-1 mouse assessed as drug tolerance at 30 mg/kg, ip measured for 6 hrs. It counts as organism-based. The conditions noted are these: in vivo.
The target in series [8] is T1, 5-hydroxytryptamine receptor 2B (Homo sapiens, UniProt P41595). The conditions noted are these: dose 32000.0 nM.
T1 sequence (P41595 whole entry): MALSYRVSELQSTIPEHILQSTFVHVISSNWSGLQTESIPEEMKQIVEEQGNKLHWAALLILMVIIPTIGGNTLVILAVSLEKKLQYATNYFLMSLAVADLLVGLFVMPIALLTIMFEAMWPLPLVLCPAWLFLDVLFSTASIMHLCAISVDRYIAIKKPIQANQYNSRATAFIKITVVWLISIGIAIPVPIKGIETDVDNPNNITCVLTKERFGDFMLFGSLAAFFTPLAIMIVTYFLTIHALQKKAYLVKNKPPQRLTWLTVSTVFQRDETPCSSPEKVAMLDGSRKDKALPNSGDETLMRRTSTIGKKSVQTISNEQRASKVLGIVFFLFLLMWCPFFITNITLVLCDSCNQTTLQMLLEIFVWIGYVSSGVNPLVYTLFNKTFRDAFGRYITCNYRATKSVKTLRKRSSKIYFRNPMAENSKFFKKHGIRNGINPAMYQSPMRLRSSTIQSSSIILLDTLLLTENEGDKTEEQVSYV
Description: Inhibition of [3H]LSD binding to 5-HT2B receptor (unknown origin) assessed as maximum inhibition at 32000 nM relative to control
Series [9] deals with T1, 5-hydroxytryptamine receptor 2B. As to the kind of experiment: Inhibition of [3H]LSD binding to 5-HT2B receptor (unknown origin).
Series [10] has as its system HFF. As to the kind of experiment: Cytotoxicity against HFF cells assessed as reduction in cell viability at 50 to 100 uM incubated for 72 hrs by alamar blue assay. The format is toxicity, cell-based. Particulars: human, dose 50-100 µM.
Series [11] has as its system MCF7. The series can be described thus: Cytotoxicity against human MCF7 cells assessed as reduction in cell viability incubated for 24 hrs by alamar blue assay. It counts as toxicity, cell-based. The conditions noted are these: mcf7, 24 h.
For series [12], the system named is LNCaP. As to the kind of experiment: Cytotoxicity against human LNCaP cells assessed as reduction in cell viability at 50 to 100 uM incubated for 72 hrs by alamar blue assay. The conditions noted are these: dose 50-100 µM. The format is toxicity, cell-based.
Series [13] relates to MDA-MB-231. The series can be described thus: Cytotoxicity against human MDA-MB-231 cells assessed as reduction in cell viability at 50 to 100 uM incubated for 72 hrs by alamar blue assay. It counts as toxicity, cell-based. The conditions noted are these: mda-mb-231, 72 h, dose 50-100 µM.
In series [14] the test system is HFF. As to the kind of experiment: Cytotoxicity against HFF cells assessed as reduction in cell viability incubated for 24 hrs by alamar blue assay. It counts as toxicity, cell-based. The conditions noted are these: human.
Series [15] has as its target KV channel (voltage-gated potassium channel family) (Homo sapiens, UniProt O43525+O43526+O95259+P16389+P17658+P22001+P22459+P22460+P48547+P51787+P56696+Q03721+Q09470+Q12809+Q14003+Q14721+Q16322+Q6PIU1+Q8NCM2+Q8TAE7+Q8TDN1+Q8TDN2+Q92953+Q96KK3+Q96L42+Q96PR1+Q96RP8+Q9BQ31+Q9H252+Q9H3M0+Q9NR82+Q9NS40+Q9NSA2+Q9NZV8+Q9UIX4+Q9UJ96+Q9UK17+Q9ULD8+Q9ULS6+Q9UQ05). As to the kind of experiment: Inhibition of KV channel (unknown origin) at 10 uM by antagonist ligand based assay relative to control. It counts as protein assay.

Series [16] has as its system MCF7. As to the kind of experiment: Cytotoxicity against human MCF7 cells assessed as reduction in cell viability at 50 to 100 uM incubated for 72 hrs by alamar blue assay. It counts as toxicity, cell-based. Particulars: mcf7, 72 h, dose 50-100 µM.
Series [17] in a line: Half life in CD-1 mouse at 30 mg/kg, ip measured for 6 hrs. It counts as ADME, organism-based. Particulars: in vivo.
Series [18] deals with HEK293. The series can be described thus: Cytotoxicity against HEK293 cells assessed as reduction in cell viability incubated for 24 hrs by alamar blue assay. The conditions noted are these: human, hek293, 24 h. It counts as toxicity, cell-based.

One may read the Ki as a measure of affinity in units of concentration, obtained from inhibition or displacement. A low value points to tighter binding. For orientation: inhibition means the relative decrease from the control value, in per cent. The half-life is the time needed for the level to fall by half in the phase considered. A lower half-life goes with fast loss.

Molecules are shown by their SMILES.

Take `O=C(NCC(=O)N1CCCC1)Nc1ccc2cnccc2c1`: the concentration at 6 h in series [1] came to 208 nM. For the same molecule, the Activity result in series [2] is given as “Toxic”; in series [3], “Non-Toxic”; in series [4], “Toxic”; in series [5] it was “Non-Toxic”; in series [6], “Non-Toxic”; in series [7], “Non-Toxic”. Moreover, the Activity result was “Toxic” in series [10]; “Non-Toxic” in [11]; “Toxic” in series [12]; “Toxic” in series [13]; “Non-Toxic” in series [14]; “Toxic” in series [16]. Also, the Activity result in series [18] was “Non-Toxic”. Moreover, the Imax in [8] amounted to 50%. The Ki in [9] is greater than 15000 nM. Besides, the inhibition at 10 µM in series [15] is -12%. In [17], this molecule gave a half-life of roughly 1 h.

In turn, `Cn1ccc2cc3c(cc21)CCN3C(=O)Nc1cccnc1` registered a Ki in series [9] of 18.5 nM.
